These are literature values, as cited in patent US12458589B2, “Implantable polymer depots for the controlled release of therapeutic agents” (Foundry Therapeutics, Inc., priority 2018, dated 2025).

Assay in data set [1]: not given
This is another data set of the same source.

Like-named read-outs stand apart in the source and are kept apart here.

Regarding `CCCCN1CCCCC1C(=O)Nc1c(C)cccc1C` (centres unmarked) [bupivacaine], the “generally regarded as safe plasma level” value is on record as 1,000 ng/mL. Also, the “generally regarded as safe plasma level” value in data set [1] is recorded as 1,000 ng/mL.
